Assay results reported in patent US9334487B2, “Methods for diagnosing rheumatoid arthritis” (Imperial Innovations Limited, priority 2007, dated 2016).
“And” between values parts separate entries of the source, which are not always exact repeats. Identical values can stand only once. “Also recorded” adds a separate entry of the source. Values belong to the compound of their own block, whether it stands above or below them. Bridges are numbered along the chain shown (N, C = ends). Where no end group is shown, it is not given here. [ ]: non-standard residue; d: D form. Cit = NC(=O)NCCC[C@H](N)C(=O)O

Legend:
[1] = tested on: anti-Peptide 1A and anti-CCP antibodies in serum; assay: Serology over time in 24 RA patients treated with MTX or MTX+INF; format: binding, human
From the text: Serum samples were obtained with informed consent and ethical approval from 102 patients with RA and 92 (or 110 patients for the results generally shown in FIGS. 9 to 16) patients with other arthritidies (including systemic lupus erythematosus (n=32), Sjogrens syndrome (n=31), psoriatic arthritis (n=5), Behçet's syndrome (n=18; FIGS. 9 to 16) and miscellaneous other rheumatic diseases (n=24). 92 control serum samples were obtained from healthy volunteers. An additional cohort of 24 patients with RA undergoing treatment with either methotrexate (MTX) alone (n=13) or methotrexate in combination with Infliximab (INF) (n=11) were collected before treatment as well as 6, 18 and 52 weeks post treatment. Disease activity score (DAS 28), erythrocyte sedimentation rate (ESR) and C-reactive protein (CRP) were measured for each patient at the same time points, i.e. 0, 6, 18 an 52 weeks post treatment. […]
96-well plates (Maxisorp; Nunc, Roskilde, Denmark) were coated with α-enolase peptides at 10 μg/ml (diluted in a 50 mM carbonate buffer, pH 9.6), or with carbonate buffer alone, and incubated over night at 4° C. […] After a final wash (PBS-Tween, 0.05%), bound antibodies were detected with TMB substrate (KPL, Maryland, USA). The reaction was stopped by the addition of 1M H2SO4 and absorbance measured at 450 nm in a Multiscan Ascent microplate reader (Thermo Labsystems). […]

[2] = Disease activity score DAS28 (CRP and ESR) in treated RA patients; format: in vivo, human; conditions: 6, 18 and 52 weeks post treatment; MTX n=13, MTX+INF n=11
From the text: (§1) Serum samples were obtained with informed consent and ethical approval from 102 patients with RA and 92 (or 110 patients for the results generally shown in FIGS. 9 to 16) patients with other arthritidies (including systemic lupus erythematosus (n=32), Sjogrens syndrome (n=31), psoriatic arthritis (n=5), Behçet's syndrome (n=18; FIGS. 9 to 16) and miscellaneous other rheumatic diseases (n=24). 92 control serum samples were obtained from healthy volunteers. An additional cohort of 24 patients with RA undergoing treatment with either methotrexate (MTX) alone (n=13) or methotrexate in combination with Infliximab (INF) (n=11) were collected before treatment as well as 6, 18 and 52 weeks post treatment. Disease activity score (DAS 28), erythrocyte sedimentation rate (ESR) and C-reactive protein (CRP) were measured for each patient at the same time points, i.e. 0, 6, 18 an 52 weeks post treatment. All patients attended the Rheumatology Clinic at Charing Cross Hospital, London. An independent cohort from the US included serum samples from 81 RA patients, taken at baseline in a clinical trial at the Omaha Veterans Affairs Medical Centre, University of Nebraska, USA, and 82 serum samples from healthy volunteers. All RA patients met the American College of Rheumatology (ACR) classification criteria (43).

[3] = tested on: serum antibodies of SLE patients; assay: ELISA of SLE patient sera on α-enolase peptides (Example 2); format: binding, human; conditions: 29 SLE patients; OD450 below 0.1 negative
Procedure: Sera from 29 patients diagnosed with systemic lupus erythromatosus (SLE) were tested by ELISA for reactivity with 11 citrullinated α-enolase peptides, namely Peptide 1A, 1B, 1D and Peptides 2 to 9 as shown in Table 1. The ELISA assay was as described in Example 1.
The quantity of antibody, from each patient sample, binding to each peptide, is reflected by the OD (450 nm) in the ELISA assay. The OD (450 nm) corresponding to the background (buffer only) was subtracted. The results, after subtraction of background, are depicted in FIG. 8A. All OD (450 nm) values below 0.1 were considered negative (=0).

[4] = tested on: anti-CEP-1 antibodies in anti-CEP-1 positive RA sera; assay: Liquid phase inhibition of binding to CEP-1-coated plates; set-up: species or system human; conditions: six anti-CEP-1 positive RA sera pre-incubated with 0, 1, 10 and 100 μg/ml peptide
Procedure: Inhibition experiments were performed in liquid phase on six anti-CEP-1 positive RA serum samples or on solid phase using serum from nine double positive (anti-CEP-1 and CCP positive) RA patients. Sera were either pre-incubated for 2 hours in RIA-buffer containing increasing concentrations (0, 1, 10 and 100 μg/ml) of CEP-1, control peptide 1D, peptide 4, peptide 7, peptide 9 or peptide 11, or pre-absorbed on plates coated with CEP-1, carbonate buffer alone or pre-absorbed on commercial CCP2 plates. To eliminate antigen-antibody complexes, the liquid phase mixtures were centrifuged at 13 000 rpm, for 15 minutes, before the supernatants were transferred to CEP-1-coated plates and assessed as described above Inhibition of binding to CEP-1, for serum samples pre-absorbed to CCP, was calculated in relation to the maximum inhibition, which by definition was set to 100% for samples pre-incubated with CEP-1.

[5] = tested on: serum IgG of RA patients, disease controls and healthy controls; assay: ELISA for IgG antibodies to cyclic α-enolase peptides, UK cohort sera; format: binding, human; conditions: for % positive, RA (n = 102): UK cohort RA sera; for % positive, RA (n = 102) / % positive, Disease controls (n = 110) / % positive, Healthy controls (n = 92): cut-off OD450 = 0.1
From the text: as §1
Fifteen cyclic 15 to 23-mer peptides were synthesised at Cambridge Research Biochemicals (Cleveland, UK). The peptide sequences corresponded to amino acid sequences in human α-enolase (SwissProt accession number P06733) or P. gingivalis enolase (SwissProt accession number AAQ66821), with the addition of cysteine residues at the amino- and carboxy-termini and the exchange of citrulline for arginine residues at certain positions, as shown in Tablet and Table 2 below.
(§2) 96-well plates (Maxisorp; Nunc, Roskilde, Denmark) were coated with α-enolase peptides at 10 μg/ml (diluted in a 50 mM carbonate buffer, pH 9.6), or with carbonate buffer alone, and incubated over night at 4° C. Wells were washed with PBS-Tween (0.05%) and blocked with 2% BSA (diluted in PBS) for 3 hours at room temperature. Sera were diluted 1:50 in RIA-buffer (10 mM Tris, 1% BSA, 350 mM NaCl, 1% Triton-X, 0.5% Na-deoxychlate, 0.1% SDS) supplemented with 10% FCS, added in duplicates and incubated for 1.5 hour at room temperature. Plates were washed as described above and incubated with peroxidase-conjugated mouse anti-human IgG (Hybridoma Reagent Laboratory, Baltimore, USA) (diluted 1:1000 in RIA-buffer, 10% FCS) for 1 hour at room temperature. After a final wash (PBS-Tween, 0.05%), bound antibodies were detected with TMB substrate (KPL, Maryland, USA). The reaction was stopped by the addition of 1M H2SO4 and absorbance measured at 450 nm in a Multiscan Ascent microplate reader (Thermo Labsystems). A control serum was included on all plates to correct for plate-to-plate variation. Background OD450 (wells coated with only carbonate buffer) was subtracted from peptide OD450 for every serum tested. Values above 0.1 were taken as positive. ELISA on the US serum samples were performed in a similar manner, but with 2% BSA in carbonate buffer as background, and with an OD cut-off of 0.2 for positive samples. Anti-CCP antibody status was analysed using the CCP2 kit (Eurodiagnostica, Malmo, Sweden), according to the manufacturer's instructions.

[6] = tested on: serum antibodies of RA patients and healthy controls grouped by CCP status; assay: ELISA for reactivity with CEP-1, Swedish EIRA cohort (Example 3); format: binding, human
Procedure: Sera from healthy controls and 511 rheumatoid arthritis patients from the Swedish EIRA (Epidemiological Investigation of Rheumatoid Arthritis) cohort (Stolt et al, Quantification of the influence of cigarette smoking on RA, Ann Rheum Dis, 2003; 62:835-841), were tested for antibodies to cyclic citrullinated peptides using the commercially available anti-CCP ELISA. At least 600 healthy controls were screened and, amongst these, a rare population that were CCP positive (n=16) were identified. Two of these CCP positive individuals have developed RA since the blood samples were collected.
Sera from the 511 rheumatoid arthritis patients, 16 CCP positive healthy controls and 126 CCP negative healthy controls were also screened by ELISA for reactivity with CEP-1 (Peptide 1A) as described in Example 1. The rheumatoid arthritis patients were divided into CCP positive (n=410) and CCP negative (n=101) groups.

[7] = tested on: serum IgG of RA patients and healthy controls (US cohort); assay: anti-CEP-1 antibody ELISA, independent US cohort; format: binding, human
From the text: as §1
as §2, with “ELISA on the US serum samples were performed in a similar manner, but with 2% BSA in carbonate buffer as background, and with an OD cut-off of 0.2 for positive samples.” left out, “instructions. […]” for “instructions.”

[8] = tested on: serum antibodies of RA patients and healthy controls; conditions: seven patients; cited from earlier work
[9] = cut-off 98th percentile of controls

% positive, RA (n = 102) [5]: 4%
% positive, Disease controls (n = 110) ([5]; UK cohort): 2%
% positive, Healthy controls (n = 92) ([5]; UK cohort): 2%
Compound: cangwgvmvsh-X-sgetedtc (CANGWGVMVSH[Cit]SGETEDTC; disulfide 1-20 (inferred); listed as Homo sapiens) [Peptide 7, human α-enolase aa 362-379]
% of SLE sera scored positive [3]: 3.4%
inhibition of antibody binding to CEP-1-coated plates [4]: no inhibition
inhibition of antibody binding to CEP-1-coated plates ([4]; listed as peptide 7): did not result in decreased antibody binding

% positive, RA (n = 102) [5]: 12%
% positive, Disease controls (n = 110) ([5]; UK cohort): 5%
% positive, Healthy controls (n = 92) ([5]; UK cohort): 0%
Compound: cf-X-sgkydldfkspddps-X-yc (CF[Cit]SGKYDLDFKSPDDPS[Cit]YC; disulfide 1-21 (inferred); listed as Homo sapiens) [Peptide 6, human α-enolase aa 252-270]
% of SLE sera scored positive [3]: 3.4%

More lines, now with the values behind:

Compound: CN(Cc1cnc2nc(N)nc(N)c2n1)c1ccc(C(=O)N[C@@H](CCC(=O)O)C(=O)O)cc1 [MTX, methotrexate]
anti-Peptide 1A antibody levels over time ([1]; pre-treatment, 6, 18 and 52 weeks, not statistically significant): increased
DAS28 (CRP and ESR) change [2]: did not result in such statistically significant decrease; also recorded: did not change significantly

Compound: ckiha-X-eifds-X-gnptvec (CKIHA[Cit]EIFDS[Cit]GNPTVEC; disulfide 1-19 (inferred); listed as Homo sapiens) [Peptide 1A]
sensitivity at start of study ([1]; 24 RA patients, nine positive in each treatment group): 75%
% positive for anti-CEP-1 antibodies, CCP+ RA (n=410) ([6]; Swedish EIRA cohort): Sixty
% positive for anti-CEP-1 antibodies, CCP− RA (n=101) ([6]; Swedish EIRA cohort): 17%
% positive for anti-CEP-1 antibodies, CCP+ healthy controls (n=16) ([6]; Swedish cohort): 25%
% positive for anti-CEP-1 antibodies, CCP− healthy controls (n=126) ([6]; Swedish cohort): 0.8%
inhibition of antibody binding to CEP-1-coated plates [4]: dose dependent decrease; also recorded: dose-dependent inhibition
% of healthy controls reactive ([5]; UK and US cohorts together): 2%
% positive, RA (n = 102) [5]: 37.3%
% positive, RA (n = 102) ([5]; listed as 1A(CEP-1)): 37%
% of anti-CCP negative RA patients positive ([5]; UK cohort, anti-CCP negative RA sera): 23%
% positive, non-RA patient controls (n=92) ([5]; UK cohort, smaller disease control group): 4.3%
% positive, Disease controls (n = 110) ([5]; UK cohort): 3%
% positive, Healthy controls (n = 92) ([5]; UK cohort): 2.2% and 2%
% positive, Healthy controls (n = 92) ([5]; UK cohort, listed as 1A(CEP-1)): 2%
specificity for RA ([5]; UK cohort, disease controls (92 or 110) and 92 healthy controls): 97%
anti-CEP-1 antibody status of patients with SLE and Behçet's disease ([5]; UK disease controls): uniformly negative
% of individuals without rheumatoid arthritis scored positive ([5]; summary statement): about 3% and ~2%
specificity, US cohort ([7]; 82 healthy controls, no disease controls): 98%
% RA patients positive / sensitivity, US cohort (n=81) [7, 9]: 62%
% healthy controls positive, US cohort (n=82) [7, 9]: 2%

Compound: non-citrullinated protein: whole non-citrullinated α-enolase protein
% of RA patients also recognizing the non-citrullinated protein [8]: 13%
